This note sets out measurements from patent publication US20230201157A1, “COMPOSITIONS OF CANNABINOIDS AND METHODS OF USING SAME” (ASANA BIO GROUP LTD., priority 2020, published 2023).

The test system of series [1] is RAW 264.7 cells. Nature of the series: MTT viability assay. It is filed as cell-based, mouse. The following applies: for cell viability: 50 µM of single cannabinoid (FIG. 1). On the procedure:
(§1) Cell lines were cultured according to standard mammalian tissue culture protocols and sterile technique. Adherent human epithelial endometriosis 12Z and mouse monocytes RAW 264.7 cell lines were cultured in high glucose Dulbecco’s Modified Eagle Medium (DMEM) supplemented with 1% sodium pyruvate. Human monocytes THP-1 cell line were cultured in RPMI medium 1640. All media was supplemented with 10% fetal bovine serum, streptomycin […], penicillin (100 U/ml) and Nystatin (12.5 U/ml). Cells were incubated in 5% CO2 at 37° C. All tissue culture cells were maintained in 75 cm^2 cell culture treated flask (Eppendorf) and all the media and supplements were obtained from Biological Industries. Treatment were performed by plating cells in a 96 micro well delta surface plates (Eppendorf) in a starting confluence of 1 × 10^4 cells/well.
The viability of the cells following treatment was determined using a commercially available MTT assay kit (Abcam, ab 146345) and performed according to manufacturer’s instructions. Briefly, cells were seeded in a 96-well plate at a density of 1 × 10^4 cells/well (n=4) in 100 µl cell specific media. After overnight plating, cells were exposed to varying concentrations of cannabis samples in 100 µl of specific media. Then, plates were incubated in a humidified atmosphere containing 5% CO2 in air at 37° C. for 24 hours. According to the MTT standard protocol, after 24 h treatment, the media was removed, and all cells were incubated with serum-free media containing 0.5 mg/ml MTT for 4 hours at the incubator. The MTT purple crystals formed by the viable cells were dissolved using isopropanol containing 0.04 mol/L HCl. The quantification was determined by measuring the optical density at 570 nm in a spectrophotometer reader (Spark, Tecan). Results were presented as proportional viability (%) by comparing between treated and untreated groups. Cytotoxic potential of an extract was determined according to the following criteria: Non-cytotoxic -Viability is ≥ 70% of vehicle control; Cytotoxic - Viability is reduced to less than 70% of vehicle control.
A general note: Tetrazolium dyes change colour on reduction, which living cells bring about.

Series [2] concerns RAW 264.7 cells. Put plainly: Nitric oxide detection assay (Griess) in LPS-stimulated cells. It is filed as cell-based, mouse. Conditions: for nitric oxide production: 50 µM of single cannabinoid (FIG. 1); for nitric oxide production while minimally affecting cell viability: lower dose, 25 µM, compared with effect at 50 µM (FIG. 1). As for the experimental part: as §1
RAW 264.7 cells were seeded in a 96-well plate at a density of 1 × 10^4 cells/well (n=4) in 100 µl cell specific media (DMEM high glucose supplemented with 10% FBS, 1% PSN and 1% Sodium pyruvate). After 24 hours, cells were treated with varying concentrations of cannabis samples using specific media containing 5% FBS. After 1 hour, treated and untreated cells, were stimulated by Lipopolysaccharides (LPS) at a final concentration of 1 µg/ml. Cells supernatants were harvest after 24 h for nitric oxide radical (NO•) assay by addition of 50 µl of the supernatant to an equal volume of Griess reagent (1% sulfanilamide, 0.1% naphthalene diamine and 2% H3PO4). After 10 min of incubation, the resultant color was measured at 540 nm. Results were presented as proportional (%) by comparing between treated and untreated groups. Anti-inflammatory potential of an extract in preventing Nitric oxide production was determined by the ratio between nitric oxide and cell viability values: Ratio < 0.5 = High effect; Ratio between 0.5-0.7 = Moderate effect; Ratio […] = Low effect; and Ratio > 1 = No effect.
A general note: The Griess reaction detects nitrite, a stable product of nitric oxide.

For the compound `O=c1cc(-c2ccc(O)cc2)oc2cc(O)cc(O)c12` [Apigenin, apigenin], the “cell viability (exception to 'no substantial effect on cell viability')” value in the series on RAW 264.7 cells [1] (mouse, 24 h, 50 µM) was “excluding 50 µM of Apigenin”.
As to `CCCCCc1cc(O)c2c(c1)OC(C)(CCC=C(C)C)C=C2` (stereo not drawn) [CBC, cannabichromene], the cell viability entry with RAW 264.7 cells [1] is listed as “minimally affecting cell viability or not affecting cell viability at all”. For the same compound, the nitric oxide production entry in the series with RAW 264.7 cells [2] is listed as “reduced nitric oxide production”.
With `CCCCCc1cc2c(c(O)c1C(=O)O)C=CC(C)(CCC=C(C)C)O2` (stereo not drawn) [CBCA, cannabichromenic acid], in the series with RAW 264.7 cells [1], the cell viability result is “minimally affecting cell viability or not affecting cell viability at all”. Moreover, in the series with RAW 264.7 cells [2], the nitric oxide production result was “reduced nitric oxide production” and the “nitric oxide production while minimally affecting cell viability” value is on record as “comparable effect”.
In the case of `CCCCCc1cc(O)c(C/C=C(\C)CCC=C(C)C)c(O)c1` [CBG, cannabigerol], the nitric oxide production entry with RAW 264.7 cells [2] is on record as “reduced nitric oxide production”.
Consider `CCCCCc1cc(O)c2c(c1)OC(C)(C)c1ccc(C)cc1-2` [CBN, cannabinol], for which the cell viability result with RAW 264.7 cells [1] is reported as “minimally affecting cell viability or not affecting cell viability at all”. Also, the nitric oxide production result with RAW 264.7 cells [2] was “reduced nitric oxide production”.
Turning to `CCCCCc1cc2c(c(O)c1C(=O)O)-c1cc(C)ccc1C(C)(C)O2` [CBNA, cannabinolic acid], the cell viability entry in the series on RAW 264.7 cells [1] was “minimally affecting cell viability or not affecting cell viability at all”. In addition, in the series with RAW 264.7 cells [2], the nitric oxide production result is given as “reduced nitric oxide production” and the “nitric oxide production while minimally affecting cell viability” value is on record as “comparable effect”.
With `CCCCCc1cc2c(c(O)c1C(=O)O)[C@@H]1C=C(C)CC[C@H]1C(C)(C)O2` [THCA, tetrahydrocannabinolic acid], in the series with RAW 264.7 cells [1], the cell viability result was “minimally affecting cell viability or not affecting cell viability at all”. In addition, the nitric oxide production entry with RAW 264.7 cells [2] is “reduced nitric oxide production”.
The matching figures for `CCCc1cc(O)c2c(c1)OC(C)(C)[C@@H]1CCC(C)=C[C@@H]21` [THCV, tetrahydrocannabivarin]: “minimally affecting cell viability or not affecting cell viability at all” and “reduced nitric oxide production”.
In the same order, the values of `CCCc1cc2c(c(O)c1C(=O)O)[C@@H]1C=C(C)CC[C@H]1C(C)(C)O2` [THCVA, tetrahydrocannabivarinic acid] are “minimally affecting cell viability or not affecting cell viability at all” and “reduced nitric oxide production”.
